# According to patent US20080039496A1, “Method of Modulating Neurite Outgrowth by the use of a Galanin-3 Receptor Antagonist” (priority 2006, published 2008):
# Assays:
# [1] = test system: cultured mouse hippocampal neurons; test: Neurite outgrowth assay in cultured mouse hippocampal neurons (Example 2); format: cell-based; details: 100 ng/ml for 24 hours
# Procedure: (§1) C57B1/6 or CD1 mouse embryonic (E17.5) hippocampal neurons were purchased from QBM Cell Science (University of Ottawa, Ontario, Canada). Neurons were cultured on poly-D-lysine coated 96 or 24 well plates in serum free Neurobasal medium supplemented with 2% B27, 500 μM L-glutamine, and 1 mM pyruvate. Cells were plated at a density of 20,000 per well on 96 well plates (for neurite outgrowth assays), and at 100,000 per well on […] (for qPCR analysis). For neurite outgrowth assays, neurons were cultured for 2 days and then stimulated for 24 hours. For gene-expression assays, neurons were grown for 8 days and then stimulated with HT-2157 or Vehicle.
# (§2) Neurite outgrowth assays were performed using the Cellomics Arrayscan II Vti HCS scanner. Cells were stained using the HitKit™ HCS reagent kit (Cellomics) according to the manufactures specifications. The assay is based on immunofluorescence using an antibody that has been validated to specifically label both neurites and neuronal cell bodies. Briefly, cells were fixed in 3.7% formaldehyde and nuclei stained with Hoechst dye. Cells were then washed in neurite outgrowth buffer and neurites stained with Cellomics' proprietary primary antibody for neurite outgrowth high content screening. After 1 hour of incubation with the primary antibody, the cells were washed again and then incubated with fluorescently labeled secondary antibody solution for 1 hour. Antibody-stained 96-well plates were store at 4° C. in the dark until scanning. Plates were scanned using Cellomics ArrayScan II Vti HCS scanner. The neurite outgrowth assay uses two channels to carry out the scan. Channel 1 detects the Hoechst Dye and is used by the software to identify cells and for automated focusing. Channel 2 detects the FITC fluorescence of the secondary antibody and is used by the software to calculate all data generated in reference to neurites.
# [2] = test system: PC12 sub-clone, Neuroscreen-1 (NS-1) cells; test: Neurite outgrowth assay in NS-1 cells (Example 1); format: cell-based; details: NS-1 cells with 200 ng/mL NGF, fixed 24 hr post treatment, various concentrations; dose-dependent
# Procedure: PC12 sub-clone, Neuroscreen-1 (NS-1) cells were plated into collagen I-coated 96 well plate (BD BioCoat) at 5,000 cells per well in RPMI complete medium with 200 ng/mL NGF. 48 hr later NS-1 cells were treated with HT-2157 at various concentrations and were subsequently fixed 24 hr post treatment.
# (§3) Following fixation, Cellomics's Neurite Outgrowth reagent kit was used to label cells by a primary antibody specific for neurons. The cell nuclei were labeled by Hoechst 33342. Fluorescently labeled cells were then imaged and analyzed using Cellomics's Neurite Outgrowth and Extended Neurite Outgrowth Bioapplications on the ArrayScan HCS Reader. Images for quantitative HCS analysis were collected on the ArrayScan HCS Reader using a 10× or a 20× microscope objective.
# Hes5 [3] = test: qPCR analysis of Hes5 mRNA in cultured mouse hippocampal neurons; format: cell-based; parameters: dose or concentration left out as unconfirmed; details: vs vehicle
# Procedure: as §1
# (§4) RNA was isolated from cultured neurons at the indicated timepoint after HT-2157 treatment. Per well, one RNA preparation was performed using the QIAgen RNeasy kit (Qiagen) according to the manufacturer's specifications. cDNA was generated using TaqMan Reverse transcriptase kit (Applied Biosystems). 2 real-time PCR reactions per RNA/cDNA replication were performed using the ABI prism and SDS 2.1 software. ABI assays on demand (Applied Biosystems) were used to test the mRNA levels of BDNF, NGFβ, and Hes5. The average CT value for each cDNA sample was determined. Data was then normalized to TATA binding protein (TBP) and ΔCT values were determined. mRNA levels were normalized to a vehicle (0.2% DMSO) treated control group.
# 5-HT transmission = details: Rowley et al. Br J Pharmacol 2005, P125; cited from earlier work
# BDNF = test: qPCR analysis of BDNF mRNA in cultured mouse hippocampal neurons; format: cell-based; details: 10 μM, vs vehicle
# Procedure: as §1, §4
# NS1 cells = test: Neurite outgrowth assay in NS1 cells (Example 2); format: cell-based; details: 3 μM and 10 μM
# Procedure: Neuroscreen 1 (NS1) Cells (Cellomics Inc.) were cultured on collagen type I coated 75 cm^2 plastic flasks (Biocoat, Becton Dickinson) in a humidified incubator at 37° C. in 5% CO2. Cells were cultured in RPMI complete cell culture medium (Cambrex) supplemented with 10% heat-inactivated horse serum (Invitrogen), 5% heat-inactivated fetal bovine serum (Cellgro), and 2 mM L-glutamine (Cambrex). For expansion, the cells were trypsinized and split at 80% confluence. The cell culture media was changed every 2 to 3 days.
# NS1 cells were stimulated with nerve growth factor to induce differentiation into a neuronal phenotype. NS1 cells were harvested as if they were being passaged and then counted using a Coulter counter (Becton Dickinson Coulter Z1). Cells were seeded in 96-well collagen I coated plates at a density of 2000 cells per well in volume of 200 μl. RPMI media was supplemented with 200 ng/ml nerve growth factor (NGFβ, Sigma). NS1 cells were incubated for 72 hours to allow differentiation to a neuronal phenotype. NGFβ was then diluted to 50 ng/ml and the cells were treated with siRNA or HT-2157, respectively.
# as §2
# NGFβ = test: qPCR analysis of NGFβ mRNA in cultured mouse hippocampal neurons; format: cell-based; details: 10 μM, vs vehicle
# Procedure: as §1, §4
# 5-HT = details: Rowley et al. Br J Pharmacol 2005, P127; cited from earlier work
# Hes5 [4] = test: qPCR analysis of Hes5 expression in NS-1 cells; format: cell-based
# Procedure: NS-1 cells were plated into collagen I-coated 6 well plate (BD BioCoat) at 150,000 cells per well. 48 hr post NGF treatment at 200 ng/mL NS-1 cells were treated with HT-2157 for 2 hr, 4 hr or 24 hr at concentrations as indicated followed by RNA isolation using Ambion's RNAqueous-4PCR kit. Reverse transcription reactions were performed with Taqman reverse transcription reagents (Applied Biosystems). qPCR was performed on a 7900 real-time PCR machine using Optical 96 well reaction plates (Applied Biosystems). Expression levels were normalized to mouse TBP transcript levels.
# GalR3 = test: Western blot analysis of GalR3 expression in NS1 cells; format: cell-based; details: 24 hours after treatment
# Procedure: Cultured NS1 cells were homogenized in RIPA buffer (Upstate Biotechnology) containing proteinase inhibitors (Roche). Protein concentrations were determined using the Biorad DC protein assay kit (Biorad). 20 μg of protein-lysate were separated by SDS poly-acrylamide gel electrophoresis (SDS-PAGE) and blotted onto nylon membranes. Western blots were blocked with 5% non-fat dry milk in Tris-buffered saline containing 0.05% Tween 20 (TBS-T) and the primary antibodies applied at 4° Celsius over night. Blots were probed with horseradish peroxidase (HRP) coupled secondary antibodies at room temperature for 1 h, and developed using the SuperSignal® West Pico Chemiluminescent Substrate (Pierce). We used a polyclonal antibody against GalR3 (Alpha Diagnostics). Blots were normalized to β-actin (Sigma).
# [5] = test system: cryopreserved mouse hippocampal neurons; test: Neurite outgrowth assay in cryopreserved mouse hippocampal neurons (Example 1); format: cell-based; details: fixed 48 hr post treatment, various concentrations
# Procedure: The cryopreserved mouse hippocampal neurons were plated into poly-L-lysine-coated 96 well plate (BD BioCoat) at 35,000 cells per well in Neurobasal/B27 medium (Invitrogen). 24 hr later the neurons were treated with HT-2157 at various concentrations and were subsequently fixed 48 hr post treatment.
# as §3
Compound,branch points [1],neurite length [1],number of neurites per cell [1],neurite branch point [2],neurite count [2],neurite length [2],Hes5 mRNA levels (Hes5 [3]),inhibitory effect of Galanin on 5-HT transmission (5-HT transmission),BDNF mRNA levels (BDNF),average neurite length per cell (NS1 cells),number of neurite branch points per cell (NS1 cells),number of neurites per cell (neurite count) (NS1 cells),total neurite length per cell (NS1 cells),NGFβ mRNA levels (NGFβ),extracellular levels of 5-HT in various brain regions (5-HT),"mRNA levels of Hes5 (Hes5 [4]; NS1 cells, 2 hours and 4 hours after treatment with 3 or 10 μM, compared to vehicle)","Hes5 mRNA (Hes5 [4]; NS1 cells, 24 hours after treatment)","Hes5 expression (Hes5 [4]; NS-1 cells, treatment at 2 hr and 4 hr, time- and dose-dependent)",Expression of GalR3 (GalR3),neurite length [5]
"NGFβ: nerve growth factor β, neurotrophin (Sigma)",increased,increased,increased,–,–,–,–,–,–,–,–,–,–,–,–,–,–,–,–,–
O=C1C(=Nc2cccc(C(F)(F)F)c2)c2ccccc2N1c1ccccc1 [HT-2157],–,–,–,increase,increase,increase,significantly reduced,antagonize,significantly increased,increase,increase,increase,increase,significantly increased,increase,reduced,returned to baseline levels,down-regulated,not affected,significantly increased
